Here are results for 21 compounds from patent publication USRE47689E1, “Compounds for treating spinal muscular atrophy” (PTC Therapeutics, Inc., priority 2011, dated 2019).

Series [1] deals with SMN2 minigene (full length SMN2 minigene mRNA containing SMN2 exon 7). The series is described as follows: SMN2 minigene mRNA splicing RT-qPCR assay in cultured cells. Format: cell-based, human. The note with it: Homo sapiens, HEK293-H, read-out: EC1.5x for production of full length SMN2 mRNA. The essentials: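 Read-out: full-length (exon 7-included) SMN2 minigene mRNA by multiplex RT-qPCR with GAPDH, efficiency-corrected (1+E)^−Ct, GAPDH-normalized and divided by vehicle. Stably transfected HEK293H cells, 24 h compound exposure, duplicates per concentration. Value is EC1.5x, reported as star ranges.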

In the next series the test system is Smn protein. The series is described as follows: Smn protein assay in cultured cells (SMN HTRF). The class given is cell-based, human. Conditions: 48 hours; for EC1.5x (concentration giving 1.5-fold Smn protein increase): SMA Type 1 patient fibroblast cells (GM03813), 7-point concentration curve, SMN HTRF, concentration producing 1.5 times Smn protein vs DMSO vehicle control, read-out: EC1.5x for Smn protein expression; for maximum fold (Fold) increase of Smn protein: SMA patient fibroblast cells, 7-point concentration data, fold increase relative to vehicle control (SMN HTRF). The essentials:
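Lysates in RIPA with protease inhibitors are incubated overnight at room temperature with HTRF anti-SMN antibodies. EC1.5x is derived from fold increase in ΔF over vehicle.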

Where [2] appears, read: HEK293H cells stably transfected with SMN2-A minigene, 24 hours, 7-point concentration curve, 1.5-fold relative to vehicle-treated cells.

Where two headings read alike, the source gives them in different places.

`Cc1cn2cc(-c3cc4ccc(N5CCN6CCC[C@H]6C5)cc4oc3=O)cnc2n1` [Compound 649, 7-[(8aS)-hexahydropyrrolo[1,2-a]pyrazin-2(1H)-yl]-3-(2-methylimidazo[1,2-a]pyrimidin-6-yl)-2H-chromen-2-one]: the melting point was in the range of 295 to 297 °C. Moreover, in series [1] (setting [2]), the EC (1.5-fold) fell in the range of 0.1 to 0.3 µM. In addition, in the series on Smn protein, the EC1.5x (concentration giving 1.5-fold Smn protein increase) lay within 300 to 1000 nM and the “maximum fold (Fold) increase of Smn protein” value (“maximum fold (Fold) increase” below) was “***** (fold increase >1.65)”.
Regarding `Cc1cn2cc(-c3cc4ccc(N5CCN(CCO)CC5)cc4oc3=O)cc2c(C)n1` [Compound 685, 3-(1,3-dimethylpyrrolo[1,2-a]pyrazin-7-yl)-7-[4-(2-hydroxyethyl)piperazin-1-yl]-2H-chromen-2-one], the melting point lay within 160 to 164 °C. Besides, the EC (1.5-fold) in series [1] (setting [2]) was below 0.1 µM. In addition, in the series on Smn protein, the EC1.5x (concentration giving 1.5-fold Smn protein increase) was below 300 nM; the “maximum fold (Fold) increase” value was “**** (fold increase between >1.5 and ≤1.65)”.
`Cc1cn2cc(-c3cc4ccc(N5CC[C@H](N(C)C)C5)cc4oc3=O)cc2c(C)n1` [Compound 697, 7-[(3S)-3-(dimethylamino)pyrrolidin-1-yl]-3-(1,3-dimethylpyrrolo[1,2-a]pyrazin-7-yl)-2H-chromen-2-one] displayed a melting point of 195 to 198 °C. The EC (1.5-fold) in series [1] (setting [2]) is below 0.1 µM. In the series with Smn protein, the EC1.5x (concentration giving 1.5-fold Smn protein increase) was 300 to 1000 nM; the “maximum fold (Fold) increase” value was “*** (fold increase between >1.35 and ≤1.5)”.
In turn, `O=c1oc2cc(N3CCNCC3)ccc2cc1-c1cccc(F)n1` [Compound 380, 3-(6-fluoropyridin-2-yl)-7-(piperazin-1-yl)-2H-chromen-2-one] had a melting point of 196 to 198 °C. For the same compound, the EC (1.5-fold) in series [1] (24 h) was in the range of 0.3 to 1 µM. Also, the “maximum fold (Fold) increase” value in the series with Smn protein was “** (fold increase between >1.2 and ≤1.35)”.
In turn, `Cc1ccc(Nc2cc3ccc(N4CCNCC4)cc3oc2=O)nc1` [Compound 63, 3-[(5-methylpyridin-2-yl)amino]-7-(piperazin-1-yl)-2H-chromen-2-one] yielded a melting point of 225 to 228 °C. For the same compound, in series [1] (setting [2]), the EC (1.5-fold) lay within 1 to 3 µM. The “maximum fold (Fold) increase” value with Smn protein is “** (fold increase between >1.2 and ≤1.35)”.
Consider `O=c1oc2cc(N3CCNCC3)ccc2cc1-c1ccc(F)c(Cl)c1` [Compound 484, 3-(3-chloro-4-fluorophenyl)-7-(piperazin-1-yl)-2H-chromen-2-one], for which the melting point lay within 186 to 188 °C. The EC (1.5-fold) in series [1] (setting [2]) lay in the range of 0.3 to 1 µM. Moreover, in the series with Smn protein, the “maximum fold (Fold) increase” value is “* (maximum fold increase of ≤1.2)”.
In turn, `Cc1cn2cc(-c3cc4ccc(N5CCN6CCC[C@@H]6C5)cc4oc3=O)nc2cn1` [Compound 625, 7-[(8aR)-hexahydropyrrolo[1,2-a]pyrazin-2(1H)-yl]-3-(6-methylimidazo[1,2-a]pyrazin-2-yl)-2H-chromen-2-one] returned a melting point of 240 to 245 °C. Also, in series [1] (setting [2]), the EC (1.5-fold) is below 0.1 µM. Besides, in the series on Smn protein, the EC1.5x (concentration giving 1.5-fold Smn protein increase) was 300 to 1000 nM; the “maximum fold (Fold) increase” value is “*** (fold increase between >1.35 and ≤1.5)”.
`O=c1oc2cc(N3CCNCC3)ccc2cc1-c1cn2cc(F)cnc2n1` [Compound 502, 3-(6-fluoroimidazo[1,2-a]pyrimidin-2-yl)-7-(piperazin-1-yl)-2H-chromen-2-one] returned a melting point of 250 to 261 °C. Also, the EC (1.5-fold) in series [1] (setting [2]) fell in the range of 1 to 3 µM. For the same compound, the “maximum fold (Fold) increase” value in the series with Smn protein is recorded as “* (maximum fold increase of ≤1.2)”.
`Cc1cn2cc(-c3cc4ccc(N5C[C@H]6CCCN(CCO)[C@H]6C5)cc4oc3=O)nc2c(C)n1` [Compound 785, 3-(6,8-dimethylimidazo[1,2-a]pyrazin-2-yl)-7-[(4aR,7aR)-1-(2-hydroxyethyl)octahydro-6H-pyrrolo[3,4-b]pyridin-6-yl]-2H-chromen-2-one] had a melting point of 207 to 217 °C. In addition, the EC (1.5-fold) in series [1] (setting [2]) is below 0.1 µM. In the series with Smn protein, the EC1.5x (concentration giving 1.5-fold Smn protein increase) fell in the range of 1000 to 3000 nM; the “maximum fold (Fold) increase” value is “**** (fold increase between >1.5 and ≤1.65)”.
For the compound `O=c1oc2cc(N3CCNCC3)ccc2cc1-c1nc2cncnc2[nH]1` [Compound 314, 7-(piperazin-1-yl)-3-(9H-purin-8-yl)-2H-chromen-2-one], the melting point is 291 to 297 °C. For the same compound, the EC (1.5-fold) in series [1] (setting [2]) was in the range of 1 to 3 µM. Also, the “maximum fold (Fold) increase” value in the series with Smn protein is on record as “* (maximum fold increase of ≤1.2)”.
For the compound `CC(c1ccc2cc(-c3nc4ccccc4s3)c(=O)oc2c1)N(C)C` (stereo not shown) [Cpd 143, 3-(1,3-benzothiazol-2-yl)-7-[1-(dimethylamino)ethyl]-2H-chromen-2-one], the melting point is 130 to 133 °C. For the same compound, the EC (1.5-fold) in series [1] (setting [2]) fell in the range of 1 to 3 µM. Further, the “maximum fold (Fold) increase” value in the series on Smn protein is “*** (fold increase between >1.35 and ≤1.5)”.
Take `Cc1nc(Cl)cn2cc(-c3cc4ccc(N5CCN6CCC[C@H]6C5)cc4oc3=O)nc12` [Compound 711, 3-(6-chloro-8-methylimidazo[1,2-a]pyrazin-2-yl)-7-[(8aS)-hexahydropyrrolo[1,2-a]pyrazin-2(1H)-yl]-2H-chromen-2-one]: the melting point lay in the range of 260 to 262 °C. Further, the EC (1.5-fold) in series [1] (setting [2]) was below 0.1 µM. In the series with Smn protein, the EC1.5x (concentration giving 1.5-fold Smn protein increase) fell in the range of 1000 to 3000 nM; the “maximum fold (Fold) increase” value was “*** (fold increase between >1.35 and ≤1.5)”.
For `COc1cccn2cc(-c3cc4ccc(N5CCN(C)CC5)cc4oc3=O)nc12` [Compound 403, 3-(8-methoxyimidazo[1,2-a]pyridin-2-yl)-7-(4-methylpiperazin-1-yl)-2H-chromen-2-one], the melting point lay within 202 to 205 °C. Also, the EC (1.5-fold) in series [1] (setting [2]) lay in the range of 3 to 30 µM. The “maximum fold (Fold) increase” value in the series on Smn protein was “* (maximum fold increase of ≤1.2)”.
Take `Cc1cc(F)c2nc(-c3cc4ccc(N5CC6CCC(C5)N6C)cc4oc3=O)cn2c1` [Compound 613, 3-(8-fluoro-6-methylimidazo[1,2-a]pyridin-2-yl)-7-(8-methyl-3,8-diazabicyclo[3.2.1]oct-3-yl)-2H-chromen-2-one]: the melting point is 267 to 274 °C. Further, the EC (1.5-fold) in series [1] (24 h) was 0.3 to 1 µM. The “maximum fold (Fold) increase” value with Smn protein is “** (fold increase between >1.2 and ≤1.35)”.
In turn, `O=c1oc2cc(N3CCNCC3)ccc2cc1-c1cc2ccccn2n1` [Cpd 187, 7-(piperazin-1-yl)-3-(pyrazolo[1,5-a]pyridin-2-yl)-2H-chromen-2-one] came in with a melting point of 236 to 238 °C. In addition, in series [1] (setting [2]), the EC (1.5-fold) fell in the range of 0.3 to 1 µM. The “maximum fold (Fold) increase” value in the series on Smn protein was “** (fold increase between >1.2 and ≤1.35)”.
`CCN(CC)C1CCN(c2ccc3cc(-c4cn5cc(C)nc(C)c5n4)c(=O)oc3c2)CC1` [Compound 922, 7-[4-(diethylamino)piperidin-1-yl]-3-(6,8-dimethylimidazo[1,2-a]pyrazin-2-yl)-2H-chromen-2-one] came in with a melting point of 205 to 207 °C. In addition, the EC (1.5-fold) in series [1] (setting [2]) was below 0.1 µM. In the series with Smn protein, the EC1.5x (concentration giving 1.5-fold Smn protein increase) was 300 to 1000 nM; the “maximum fold (Fold) increase” value was “*** (fold increase between >1.35 and ≤1.5)”.
Compound `O=c1oc2cc(N3CCNCC3)cc(F)c2cc1-c1cn2cccc(Cl)c2n1` [Compound 392, 3-(8-chloroimidazo[1,2-a]pyridin-2-yl)-5-fluoro-7-(piperazin-1-yl)-2H-chromen-2-one] had a melting point of 241 to 250 °C. In addition, the EC (1.5-fold) in series [1] (setting [2]) is 0.3 to 1 µM. Further, the “maximum fold (Fold) increase” value with Smn protein was “** (fold increase between >1.2 and ≤1.35)”.
The compound `CCN(CCO)CCOc1ccc2cc(-c3cn4cc(C)nc(C)c4n3)c(=O)oc2c1` [Compound 938, 3-(6,8-dimethylimidazo[1,2-a]pyrazin-2-yl)-7-{2-[ethyl(2-hydroxyethyl)amino]ethoxy}-2H-chromen-2-one] had a melting point of 165 to 168 °C. Also, in series [1] (setting [2]), the EC (1.5-fold) is below 0.1 µM. Further, in the series with Smn protein, the EC1.5x (concentration giving 1.5-fold Smn protein increase) is below 300 nM and the “maximum fold (Fold) increase” value is on record as “***** (fold increase >1.65)”.
For `Cc1cn2cc(-c3cc4ccc(N5C[C@@H]6C[C@H]5CN6C)cc4oc3=O)nc2c(C)n1` [Compound 696, 3-(6,8-dimethylimidazo[1,2-a]pyrazin-2-yl)-7-[(1S,4S)-5-methyl-2,5-diazabicyclo[2.2.1]hept-2-yl]-2H-chromen-2-one], the melting point was 219 to 226 °C. Besides, the EC (1.5-fold) in series [1] (setting [2]) is below 0.1 µM. Besides, in the series on Smn protein, the EC1.5x (concentration giving 1.5-fold Smn protein increase) is below 300 nM and the “maximum fold (Fold) increase” value was “***** (fold increase >1.65)”.
Compound `Cc1cn2cc(-c3cc4ccc(N5CCN(C)CC5)cc4oc3=O)cc2c(C)n1` [Compound 644, 3-(1,3-dimethylpyrrolo[1,2-a]pyrazin-7-yl)-7-(4-methylpiperazin-1-yl)-2H-chromen-2-one] displayed a melting point of 127 to 131 °C. Also, the EC (1.5-fold) in series [1] (setting [2]) is below 0.1 µM. Also, in the series with Smn protein, the EC1.5x (concentration giving 1.5-fold Smn protein increase) was below 300 nM and the “maximum fold (Fold) increase” value is listed as “***** (fold increase >1.65)”.
Consider `C[C@H]1CN(c2ccc3cc(-c4cn5cc(F)cc(F)c5n4)c(=O)oc3c2)CCN1` [Compound 524, 3-(6,8-difluoroimidazo[1,2-a]pyridin-2-yl)-7-[(3S)-3-methylpiperazin-1-yl]-2H-chromen-2-one], for which the melting point lay within 218 to 224 °C. The EC (1.5-fold) in series [1] (setting [2]) lay in the range of 0.3 to 1 µM. Moreover, the “maximum fold (Fold) increase” value in the series on Smn protein is given as “* (maximum fold increase of ≤1.2)”.
